In US11840913B2, “Methods for stimulation of hydrocarbon-bearing formations while inhibiting corrosion of metal surfaces contacted by acid solutions used in stimulation” (Fluid Energy Group Ltd., priority 2019, dated 2023):

Columns and labels:
[1] = Corrosion testing of 316 steel coupons in acidic fluids with corrosion inhibitors
Excerpt: Corrosion inhibitor compositions according to preferred embodiments of the present invention were exposed to corrosion testing. Various steel grades (stainless steel and carbon steel) were subjected to acid compositions comprising corrosion inhibitors according to the present invention against known corrosion inhibitors to the listed compositions for various periods of time at varying temperatures. A desirable corrosion inhibition result was one where the lb/ft^2 corrosion number is at or below 0.05. More preferably, that number is at or below 0.02.
33% HCl:MEA in a 5.5:1 ratio and 50% HCl:MEA in a 5.5:1 ratio indicate the volume amount of the original concentration of a stock solution containing HCl and monoethanolamine in a ratio of 5.5:1. The HCl loading of a 33% HCl:MEA in a 5.5:1 ratio is approximately 6.5% HCl. The HCl loading of 50% HCl:MEA in a 5.5:1 ratio is approximately 10% HCl.

[2] = Visual corrosion testing on grease-coated wireline (Example 7); settings: MEA-HCl 1:4.1 molar ratio at 33% dilution in water; 48 hours; 60° C.
Experimental: A visual corrosion testing was carried out on wireline using three different coatings.
It is worth noting that the acid strength was the same in all three samples and the acidic composition only differed between the first two samples and the last sample with the presence of component B2.

Compound | film forming, protection of the stainless steel ([1]; 90° C. to 110° C.) | prevention of pitting ([1]; higher temperatures (even 110° C. to 120° C.)) | visual inspection of wireline wire sheathing after acid exposure [2]
O=CC=Cc1ccccc1 [ZA, cinnamaldehyde] | effective film former |  | 
CC(C)=CCCC(C)=CC=O (racemic) [citral, (±)-3,7-Dimethyl-2,6-octadienal] |  | some effectiveness | completely stripped of its wire sheathing
